# Paper PMC11762167, “G Protein-Coupled Receptor 17 Inhibits Glucagon-like Peptide-1 Secretion via a Gi/o-Dependent Mechanism in Enteroendocrine Cells” (Biomolecules, 2024)
# Biological target: hGPR17L (Homo sapiens, UniProt Q13304)
# Assay: Endpoint cAMP (HTRF) in GLUTag cells expressing hGPR17L
# Type: cell-based
# Design: host or cells: GLUTag cells (murine enteroendocrine line), adenoviral transduction; Mean Diff. of cAMP, MDL29,951 vs FSK alone (Tukey): unit not given here
# Settings: for Predicted (LS) mean diff.: Fig 2B, Forskolin
# Description: GLUTag cells were maintained in Dulbecco’s Modified Eagle Medium (DMEM) supplemented with 10% fetal bovine serum and 1% penicillin–streptomycin in a humidified incubator at 37 °C and 5% CO2. For adenovirus transduction, GLUTag cells were seeded into poly-D-lysine coated 96-well plates or 4-chamber slides. The next day, cells were transduced with adenoviruses (100–1250 viral particles per cell at time of seeding) as indicated. After 24–30 h, adenovirus-containing media was changed to serum-free growth media for overnight serum starvation. The following day, GLUTag cells were used for cAMP or calcium signaling assays, GLP-1 secretion assays, or immunostaining and imaging.
# Endpoint cAMP measurements were conducted as follows. GLUTag cells were seeded into poly-D-lysine-coated 96-well plates and transduced with adenovirus as specified above and then tested for cAMP signaling. Medium was removed and cells were washed with cAMP stimulation buffer (Hanks’ balanced salt solution (HBSS), 20 mM HEPES, pH 7.4) and then incubated in cAMP stimulation buffer for 30 min at 37 °C and 5% CO2. Cells were then treated for 30 min with agonist and forskolin in the presence of 500 µM IBMX at 37 °C and 5% CO2. Stimulation buffer was then decanted, and cAMP lysis buffer (50 mM HEPES, 10 mM CaCl2, 0.35% Triton X-100, and 500 µM IBMX) was added and shaken at 700 rpm for 1 h. Lysate was transferred to a 384-well plate, and the cAMP levels were quantified using the Cisbio HTRF cAMP (Gi kit; Revvity, Waltham, MA, USA) according to the manufacturer’s protocol.
# [1] = 10 µM forskolin, GLUTag hGPR17L
# Chain of hGPR17L (Q13304 whole entry): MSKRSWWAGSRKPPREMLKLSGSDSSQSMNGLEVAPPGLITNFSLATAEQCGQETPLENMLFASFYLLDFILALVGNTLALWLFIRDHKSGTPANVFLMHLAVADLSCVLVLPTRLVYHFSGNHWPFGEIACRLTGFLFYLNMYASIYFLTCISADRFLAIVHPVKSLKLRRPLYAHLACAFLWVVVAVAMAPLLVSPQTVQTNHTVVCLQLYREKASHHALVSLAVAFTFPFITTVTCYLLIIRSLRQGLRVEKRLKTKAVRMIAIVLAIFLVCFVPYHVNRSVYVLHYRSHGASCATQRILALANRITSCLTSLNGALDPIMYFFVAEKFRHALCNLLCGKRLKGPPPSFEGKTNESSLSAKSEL
smiles,measurement,setting,value
"O=C(O)CCc1c(C(=O)O)[nH]c2cc(Cl)cc(Cl)c12 [MDL29,951]",effect on forskolin-stimulated cAMP upon treatment with Gq inhibitor YM-254890,"100 nM YM-254890, 10 µM forskolin",inhibited
same,inhibition of forskolin-stimulated cAMP in the presence of PTX,"100 ng/mL PTX, 10 µM forskolin",unable to inhibit
same,IC50,"10 µM forskolin, 500 µM IBMX, GLUTag hGPR17L, read-out: IC50, inhibition of forskolin-stimulated cAMP",0.029 µM
same,"pEC50, reversal of inhibition of forskolin-stimulated cAMP",[1],4.94 ± 0.09
same,"pIC50, inhibition of forskolin-stimulated cAMP",[1],7.54 ± 0.11
same,EC50,"10 µM forskolin, GLUTag hGPR17L, read-out: EC50, reversal of inhibition of forskolin-stimulated cAMP at higher concentrations",12 µM
same,Predicted (LS) mean diff.,"log [MDL29,951] (M) -4.0 vs. Vehicle, +100 nM YM-254890",-29.51
same,Predicted (LS) mean diff.,"log [MDL29,951] (M) -4.0 vs. Vehicle, +100 ng/mL PTX",28.26
same,Predicted (LS) mean diff.,"log [MDL29,951] (M) -4.0 vs. Vehicle, +Vehicle",-12.1
same,Predicted (LS) mean diff.,"log [MDL29,951] (M) -4.6 vs. Vehicle, +100 nM YM-254890",-35.09
same,Predicted (LS) mean diff.,"log [MDL29,951] (M) -4.6 vs. Vehicle, +100 ng/mL PTX",20.2
same,Predicted (LS) mean diff.,"log [MDL29,951] (M) -4.6 vs. Vehicle, +Vehicle",-15.6
same,Predicted (LS) mean diff.,"log [MDL29,951] (M) -5.2 vs. Vehicle, +100 nM YM-254890",-39.39
same,Predicted (LS) mean diff.,"log [MDL29,951] (M) -5.2 vs. Vehicle, +100 ng/mL PTX",8.85
same,Predicted (LS) mean diff.,"log [MDL29,951] (M) -5.2 vs. Vehicle, +Vehicle",-22.36
same,Predicted (LS) mean diff.,"log [MDL29,951] (M) -5.8 vs. Vehicle, +100 nM YM-254890",-44.26
same,Predicted (LS) mean diff.,"log [MDL29,951] (M) -5.8 vs. Vehicle, +100 ng/mL PTX",-1.585
same,Predicted (LS) mean diff.,"log [MDL29,951] (M) -5.8 vs. Vehicle, +Vehicle",-32.92
same,Predicted (LS) mean diff.,"log [MDL29,951] (M) -6.4 vs. Vehicle, +100 nM YM-254890",-39.29
same,Predicted (LS) mean diff.,"log [MDL29,951] (M) -6.4 vs. Vehicle, +100 ng/mL PTX",-7.715
same,Predicted (LS) mean diff.,"log [MDL29,951] (M) -6.4 vs. Vehicle, +Vehicle",-33.45
same,Predicted (LS) mean diff.,"log [MDL29,951] (M) -7.0 vs. Vehicle, +100 nM YM-254890",-30.32
same,Predicted (LS) mean diff.,"log [MDL29,951] (M) -7.0 vs. Vehicle, +100 ng/mL PTX",-2.207
same,Predicted (LS) mean diff.,"log [MDL29,951] (M) -7.0 vs. Vehicle, +Vehicle",-27.4
same,Predicted (LS) mean diff.,"log [MDL29,951] (M) -7.6 vs. Vehicle, +100 nM YM-254890",-16.56
same,Predicted (LS) mean diff.,"log [MDL29,951] (M) -7.6 vs. Vehicle, +100 ng/mL PTX",-4.54
same,Predicted (LS) mean diff.,"log [MDL29,951] (M) -7.6 vs. Vehicle, +Vehicle",-8.48
same,Predicted (LS) mean diff.,"log [MDL29,951] (M) -8.2 vs. Vehicle, +100 nM YM-254890",-9.253
same,Predicted (LS) mean diff.,"log [MDL29,951] (M) -8.2 vs. Vehicle, +100 ng/mL PTX",0.26
same,Predicted (LS) mean diff.,"log [MDL29,951] (M) -8.2 vs. Vehicle, +Vehicle",3.753
same,Predicted (LS) mean diff.,"log [MDL29,951] (M) -8.8 vs. Vehicle, +100 nM YM-254890",-3.55
same,Predicted (LS) mean diff.,"log [MDL29,951] (M) -8.8 vs. Vehicle, +100 ng/mL PTX",-5.335
same,Predicted (LS) mean diff.,"log [MDL29,951] (M) -8.8 vs. Vehicle, +Vehicle",6.603
same,Predicted (LS) mean diff.,"log [MDL29,951] (M) -9.4 vs. Vehicle, +100 nM YM-254890",1.64
same,Predicted (LS) mean diff.,"log [MDL29,951] (M) -9.4 vs. Vehicle, +100 ng/mL PTX",2.945
same,Predicted (LS) mean diff.,"log [MDL29,951] (M) -9.4 vs. Vehicle, +Vehicle",8.423
same,maximum inhibition of forskolin-stimulated cAMP,"at 390 nM MDL29,951, 10 µM forskolin",37 ± 5.1%
same,"Mean Diff. of cAMP, MDL29,951 vs FSK alone (Tukey)","hGPR17L, log [MDL29,951] (M) -4.0",-0.306
